Results from patent publication US20160317419A1, “METHOD OF IMPROVING SKIN HEALTH AND COMPOSITIONS THEREFOR” (The Procter & Gamble Company, priority 2015, published 2016).

Key:
Format in all cases: cell-based
[1] = system: keratinocytes; test: ATP Assay: ATP depletion caused by hydrogen peroxide in keratinocytes (Cell Titer-Glo); conditions: 1 hour
Description: The keratinocytes were cultured in T150 flasks using EPILIFE brand culture medium (calcium free and phenol red free, supplemented with penicillin/streptomycin and keratinocytes growth supplement, Invitrogen cat# […]500). The keratinocytes were then plated in 24 well plates with 40,000 cells/well and 1 ml of culture medium. After 24 hours, the keratinocytes were treated with 500 uM hydrogen peroxide alone, 400 uM niacinamide, 400 uM nicotinamide riboside or a combination of niacinamide and nicotinamide riboside (400 uM each) for 1 hour. Untreated keratinocytes were used as a control (i.e., keratinocytes in culture medium). The keratinocytes were washed in PBS and ATP levels were measured using the Cell Titer-Glo® brand ATP assay available from Promega, Madison, Wis. as catalogue # G7571/2/3 according to the manufacturer's instructions. Luminescence was measured on a SPECTRAMAX M3 brand microplate reader (Molecular Devices, Sunnyvale, Calif.). The net luminescence for a test sample is calculated by subtracting the observed luminescence value for the control from the observed luminescence value for the test sample.

[2] = system: human dermal fibroblasts obtained from the BJ cell line; test: ECAR Method: glycolytic ATP production rate of fibroblasts exposed to hydrogen peroxide; conditions: for % Change from Control: vs media control
Description: Glycolytic ATP production by fibroblasts exposed to hydrogen peroxide was determined using an XF Extracellular Flux brand analyzer available from Seahorse Bioscience, Massachusetts The analyzer measured extracellular acidification rate (“ECAR”) in real time, which correlates to glycolytic ATP production. The cells used in this test were frozen human dermal fibroblasts obtained from the BJ cell line commercially available from ATCC, Bethesda, Md. […] The fibroblasts were plated at 8×10^4 cells per well in gelatin-coated plates 24 hours prior to testing. Each well included 100 μL of the culture medium described above. The gelatin-coated plates are prepared by coating each well in a multi-well plate (e.g., 24-well or 96-well plates available from Seahorse Biosciences, Massachusetts) with 0.2% gelatin (protein solution available from Sigma) diluted with phosphate buffered saline (“PBS”). The gelatin is diluted 1:10 to 0.2% in sterile PBS at 37° C., and then 50 uL of the diluted gelatin solution is added to each well and incubated at room temperature for 30 minutes. Excess liquid is removed by aspiration without touching the wells and the surface is allowed to dry for at least 2 hours. Hydrogen peroxide is a well-known ROS, and is used in this example as a source of oxidative stress on the fibroblasts being tested. A stressor solution of hydrogen peroxide was prepared at 10× working concentration in the fibroblast test medium described above. The test agents (i.e., nicotinamide riboside, niacinamide, and nicotinamide riboside+niacinamide in combination) were prepared at 10× the final working concentration in the fibroblast test medium to provide test agent solutions. The stressor solution and the test agent solutions were warmed to 37° C. and pH adjusted to 7.4. A fibroblast test medium was made from Dulbecco's Modified Eagle Medium (available from Seahorse Bioscience), 25 mM glucose and 1 mM pyruvate. The fibroblast test medium was warmed to 37° C. and the pH adjusted to 7.4. The cells were grown and plated at 37° C. and 5% CO2 air. The culture medium in the wells was replaced by the fibroblast test medium 1 hour prior to taking measurements. Each well contained approximately 8×10^4 cells and 600 μL of fibroblast test medium (i.e., DMEM, 25 mM glucose and 1 mM pyruvate) at 37° C. and pH 7.4. The plates containing the samples to be tested were loaded into the analyzer and equilibrated according to the manufacturer's instructions. The test agent solutions and stressor solution were each placed in an automated injection port of the XF cartridge plate. The analyzer was programmed to sequentially run a two minute mix cycle, a two minute wait cycle, and a 3 minute measurement cycle continuously for at least 88 minutes. Data points were collected and recorded by the analyzer. The analyzer was allowed to complete three cycles prior to the addition of a stressor solution or test agent solution to provide a basal ECAR value. After the third cycle was completed (i.e., about 21 minutes after detection began), the test solution and/or stressor solution was added to the wells by the analyzer from the appropriate injection port. A stressor solution was added to the well in sufficient amount to provide 1.5 mM hydrogen peroxide in the well. The test agent solution was added in sufficient amount to provide 250 μM or 500 μM niacinamide or nicotinamide riboside in the well.

[3] = system: antioxidant response element (ARE); test: ARE Assay (ARE-32 luciferase reporter cell line); conditions: 24 hrs, control subtracted
Description: ARE activation was quantitated using the ARE-32 reporter cell line available from CXR-Biosciences as described in the ARE Assay below. ARE-32 is a stable MCF7 cell line containing pGL8x-ARE (8 copies of the rat GST ARE linked to the luciferase gene) and pCDNA3.1, which contains the neomycin selectable marker. Selection was performed in the presence of G418 and resistant clones were isolated. Clones were screened for induction of luciferase in response to tBHQ. The ARE-32 cells are maintained routinely in the DMEM (phenol red free) containing: 10% FBS, 50 units/ml penicillin & 50 μg/ml streptomycin, 0.8 mg/ml G418. Cells are subcultured every 3-4 days. Cells were frozen in medium that contains 90% FBS and 10% DMSO. In a 96 well-plate, seed 1×10^4 cells/well in 100 μl DMEM containing 50 units/ml penicillin, 50 μg/ml streptomycin, 0.8 mg/ml G418 and 10% FBS. Next, incubate the cells at 37° C. in a 5% CO2 incubator for 24 hrs, and then replace the medium with 100 μl fresh media. Treat with test compounds at 2 ul per well, positive control was 25 uM TBHQ. (10 mM tBHQ of stock solution freshly prepared in DMSO). Add 100 ul of media after treatment for a final assay volume of 200 uL. Incubate the cells at 37° C. in the CO2 incubator for another 24 hrs. Assay for luciferase activity with a STEADY-GLO brand assay system according to the manufacturer's instructions. A general schematic for how the ARE reporter assay operates to identify agents that promote transcription off the ARE is described in U.S. Publication No. 2011/0262570. The results of the test are illustrated in Table 1 and FIG. 3. The ARE activity for […] (“NR”), niacinamide (“N”) and the combination of nicotinamide riboside and niacinamide is reported as net luminescence in Table 1. Net luminescence for a test sample is determined by subtracting the luminescence value of the control from the luminescence value of the test sample. The calculated net luminescence for NR+N is the sum of the individual measured luminescence values for NR and N.

[4] = 400 uM (each) with 500 uM hydrogen peroxide
[5] = 500 μM test agent with 1.5 mM hydrogen peroxide

| Compound | % depletion vs. control (ATP) ([1]; 500 uM hydrogen peroxide alone) | Net Luminescence AVG ([1]; 500 uM hydrogen peroxide alone) | % depletion vs. control (ATP) ([1]; 500 uM hydrogen peroxide alone, listed as H2O2) | Observed ECAR ([2]; 1.5 mM hydrogen peroxide alone) | % Change from Control ([2]; 1.5 mM hydrogen peroxide alone) | Net Luminescence ([3]; NR 0.011 w/v %, N 0.0125 w/v %) | Net Luminescence ([3]; NR 0.021 w/v %, N 0.025 w/v %) | Net Luminescence ([3]; NR 0.042 w/v %, N 0.05 w/v %) | Net Luminescence ([3]; NR 0.0842 w/v %, N 0.1 w/v %) | % depletion vs. control (ATP) [1, 4] | Net Luminescence AVG [1, 4] | % depletion vs. control (ATP) ([1]; 400 uM (each) with 500 uM hydrogen peroxide, listed as niacinamide) | Observed ECAR [2, 5] | % Change from Control [2, 5] | % depletion vs. control (ATP) ([1]; 400 uM (each) with 500 uM hydrogen peroxide, listed as nicotinamide riboside) |
| --- | --- | --- | --- | --- | --- | --- | --- | --- | --- | --- | --- | --- | --- | --- | --- |
| OO [Hydrogen Peroxide, hydrogen peroxide, reference compound] | ~97.5% | 1556 | 97.5% | 8.96 mpH/min | −70.0% |  |  |  |  |  |  |  |  |  |  |
| NC(=O)c1cccnc1 [N, niacinamide] |  |  |  |  |  | 13 | 26 | 71 | 75 | 89.7% | 6539 | about 89.7% | 15.35 mpH/min | −48.6% |  |
| nicotinamide riboside [NR] |  |  |  |  |  | 205 | 594 | 1845 | 5176 | 96.9% | 1971.5 |  | 14.31 mpH/min | −52.1% | ~96.9% |
